Test results published in PMC6061700 (Toxicological Sciences, 2018).
Read-outs that look alike come from different tables or passages of the source. Marks after values point to notes of the source that are not given here. Blank lines part the entries; values can stand above or below the compound they belong to.

How the values were obtained:
[1] = system: Axiogenesis [AXG] human stem cell-derived cardiomyocytes; details: for EAD occurrence (proportion of replicates exhibiting EADs): AXG; for FPDc20 concentration (20% increase in FPDc): human
[2] = system: Cellular Dynamics International [CDI] human stem cell-derived cardiomyocytes
[3] = system: Stanford Cardiovascular Institute [SCI] human stem cell-derived cardiomyocytes; details: for EAD occurrence (proportion of replicates exhibiting EADs): study 10, SCI, AXN
[4] = system: human induced pluripotent stem cell-derived cardiomyocytes (hiPSC-CMs)
[5] = free clinical Cmax; ref Kramer et al. (2013); cited from earlier work
[6] = 20% increase in FPDc, median across qualified studies

SMILES: O=C(NCC1CCCCN1)c1cc(OCC(F)(F)F)ccc1OCC(F)(F)F (stereo not shown) [Flecainide]
- EAD occurrence (proportion of replicates exhibiting EADs) ([1]; study 4, MCS, 3 µM): 1/3
- EAD occurrence (proportion of replicates exhibiting EADs) ([2]; study 5, CDI, AXN, 1 µM): 2/4
- EAD occurrence (proportion of replicates exhibiting EADs) ([2]; study 5, CDI, AXN, 3 µM): 1/4
- EAD occurrence (proportion of replicates exhibiting EADs) ([2]; study 6, CDI, AXN, 1 µM): 1/3
- EAD occurrence (proportion of replicates exhibiting EADs) ([2]; study 6, CDI, AXN, 3 µM): 1/3
- EAD occurrence (proportion of replicates exhibiting EADs) ([2]; study 7, CDI, MCS, 3 µM): 3/3
- EAD occurrence (proportion of replicates exhibiting EADs) ([2]; study 8, CDI, MCS, 3 µM): 4/4
- EAD occurrence (proportion of replicates exhibiting EADs) ([2]; study 9, CDI, ACA, 3 µM): 3/3
- FPDc20 concentration (20% increase in FPDc) ([3]; human): 1 µM
- EAD occurrence (proportion of replicates exhibiting EADs) ([3]; 1 µM): 1/3
- EAD occurrence (proportion of replicates exhibiting EADs) ([3]; 3 µM): 2/3
- FPDc20: median [4, 6]: 1 µM

SMILES: CC(C)(Oc1ccc(Cl)cc1)C(=O)NC1C2CC3CC1CC(NS(C)(=O)=O)(C3)C2 (stereo not shown) [JNJ303]
- prolongation of FPD and FPDc ([2]; single example study, CDI myocytes, highest concentration tested (300 nM)): ~10%
- EAD occurrence ([4]; across all studies, any concentration): No EADs

SMILES: Cc1cccc(C)c1OCC(C)N (stereo not shown) [Mexiletine]
- FPDc20 concentration (20% increase in FPDc) [1]: 30 µM
- EAD occurrence (proportion of replicates exhibiting EADs) ([2]; human): 3/3
- FPDc20: median ([4]; human): 30 µM
- FPDc20: span ([4]; human): 0.5 log unit
- studies in which FPDc20 was detected ([4]; human): 3 of 8

More lines, main results first:

- FPDc20 concentration (20% increase in FPDc) [1]: 100 µM
- EAD occurrence (proportion of replicates exhibiting EADs) ([2]; study 6, CDI, AXN, 100 µM): 3/3
- EAD occurrence (proportion of replicates exhibiting EADs) ([2]; study 9, CDI, ACA, 30 µM): 1/3
- EAD occurrence (proportion of replicates exhibiting EADs) ([2]; study 9, CDI, ACA, 100 µM): 2/3
- FPDc20: median [4, 6]: 100 µM
SMILES: COc1c(N2C[C@@H]3CCCN[C@@H]3C2)c(F)cc2c(=O)c(C(=O)O)cn(C3CC3)c12 [Moxifloxacin]
- FPDc20 concentration (20% increase in FPDc) ([3]; human): 30 µM
- EAD occurrence (proportion of replicates exhibiting EADs) ([3]; 30 µM): 1/3
- EAD occurrence (proportion of replicates exhibiting EADs) ([3]; 100 µM): 2/3
- Free Drug (free Cmax) [5]: 10.96* µM

- EAD occurrence [4]: No EADs
- FPDc20: median ([4]; human): 0.1 µM
- FPDc20: span ([4]; human): 0.5 log unit
SMILES: COC(=O)C1=C(C)NC(C)=C(C(=O)OC)C1c1ccccc1[N+](=O)[O-] [Nifedipine]
- FPDc20 concentration (20% decrease in FPDc) ([3]; human): 0.3 µM

- EAD occurrence (proportion of replicates exhibiting EADs) ([1]; study 1, AXN, 10 µM): 3/3
- EAD occurrence (proportion of replicates exhibiting EADs) ([1]; study 2, AXN, 10 µM): 2/3
- EAD occurrence (proportion of replicates exhibiting EADs) ([1]; study 4, MCS, 10 µM): 3/3
- EAD occurrence (proportion of replicates exhibiting EADs) ([2]; study 5, CDI, AXN, 10 µM): 2/3
- EAD occurrence (proportion of replicates exhibiting EADs) ([2]; study 6, CDI, AXN, 1 µM): 3/3
- EAD occurrence (proportion of replicates exhibiting EADs) ([2]; study 6, CDI, AXN, 3 µM): 3/3
- EAD occurrence (proportion of replicates exhibiting EADs) ([2]; study 7, CDI, MCS, 3 µM): 1/3
- EAD occurrence (proportion of replicates exhibiting EADs) ([2]; study 7, CDI, MCS, 10 µM): 3/3
- EAD occurrence (proportion of replicates exhibiting EADs) ([2]; study 8, CDI, MCS, 10 µM): 4/4
- EAD occurrence (proportion of replicates exhibiting EADs) ([2]; study 9, CDI, ACA, 1 µM): 1/3
- EAD occurrence (proportion of replicates exhibiting EADs) ([2]; study 9, CDI, ACA, 3 µM): 3/3
- EAD occurrence (proportion of replicates exhibiting EADs) ([2]; study 9, CDI, ACA, 10 µM): 2/3
- FPDc20: median [4, 6]: 1 µM
- FPDc20: span ([4]; 20% increase in FPDc, span across qualified studies): 1 log unit
SMILES: C=C[C@H]1C[N@@]2CC[C@H]1C[C@@H]2[C@@H](O)c1ccnc2ccc(OC)cc12 [Quinidine]
- FPDc20 concentration (20% increase in FPDc) ([3]; human): 1 µM
- EAD occurrence (proportion of replicates exhibiting EADs) ([3]; 1 µM): 2/3
- EAD occurrence (proportion of replicates exhibiting EADs) ([3]; 3 µM): 3/3
- Free Drug (free Cmax) [5]: 3.237* µM

- EAD occurrence (proportion of replicates exhibiting EADs) ([1]; study 4, MCS, 30 µM): 3/4
- EAD occurrence (proportion of replicates exhibiting EADs) ([2]; study 6, CDI, AXN, 10 µM): 3/3
- EAD occurrence (proportion of replicates exhibiting EADs) ([2]; study 6, CDI, AXN, 30 µM): 3/3
- EAD occurrence (proportion of replicates exhibiting EADs) ([2]; study 7, CDI, MCS, 30 µM): 3/3
- EAD occurrence (proportion of replicates exhibiting EADs) ([2]; study 8, CDI, MCS, 30 µM): 5/5
- EAD occurrence (proportion of replicates exhibiting EADs) ([2]; study 9, CDI, ACA, 10 µM): 3/3
- EAD occurrence (proportion of replicates exhibiting EADs) ([2]; study 9, CDI, ACA, 30 µM): 2/3
- FPDc20: median [4, 6]: 10 µM
SMILES: COc1ccccc1OCC(O)CN1CCN(CC(=O)Nc2c(C)cccc2C)CC1 (stereo not shown) [Ranolazine]
- FPDc20 concentration (20% increase in FPDc) ([3]; human): 10 µM
- EAD occurrence (proportion of replicates exhibiting EADs) ([3]; 10 µM): 1/3
- EAD occurrence (proportion of replicates exhibiting EADs) ([3]; 30 µM): 2/3
